We go through three compounds from article PMC12682947, “Identification of New KCNT1‐Epilepsy Drugs by In Silico, Cell, and Drosophila Modeling” (Annals of Neurology, 2025).

Structures can show the parent of a compound that is named as a salt.

The assay deals with T1, R398Q mutant KCNT1 channels (Homo sapiens, UniProt Q5JUK3, R379Q).
T1 construct: YFP-6His; expressed in transfected cells; host or cells: HEK293T
T1 sequence (Q5JUK3 1-1235 isoform Q5JUK3-3 R398Q): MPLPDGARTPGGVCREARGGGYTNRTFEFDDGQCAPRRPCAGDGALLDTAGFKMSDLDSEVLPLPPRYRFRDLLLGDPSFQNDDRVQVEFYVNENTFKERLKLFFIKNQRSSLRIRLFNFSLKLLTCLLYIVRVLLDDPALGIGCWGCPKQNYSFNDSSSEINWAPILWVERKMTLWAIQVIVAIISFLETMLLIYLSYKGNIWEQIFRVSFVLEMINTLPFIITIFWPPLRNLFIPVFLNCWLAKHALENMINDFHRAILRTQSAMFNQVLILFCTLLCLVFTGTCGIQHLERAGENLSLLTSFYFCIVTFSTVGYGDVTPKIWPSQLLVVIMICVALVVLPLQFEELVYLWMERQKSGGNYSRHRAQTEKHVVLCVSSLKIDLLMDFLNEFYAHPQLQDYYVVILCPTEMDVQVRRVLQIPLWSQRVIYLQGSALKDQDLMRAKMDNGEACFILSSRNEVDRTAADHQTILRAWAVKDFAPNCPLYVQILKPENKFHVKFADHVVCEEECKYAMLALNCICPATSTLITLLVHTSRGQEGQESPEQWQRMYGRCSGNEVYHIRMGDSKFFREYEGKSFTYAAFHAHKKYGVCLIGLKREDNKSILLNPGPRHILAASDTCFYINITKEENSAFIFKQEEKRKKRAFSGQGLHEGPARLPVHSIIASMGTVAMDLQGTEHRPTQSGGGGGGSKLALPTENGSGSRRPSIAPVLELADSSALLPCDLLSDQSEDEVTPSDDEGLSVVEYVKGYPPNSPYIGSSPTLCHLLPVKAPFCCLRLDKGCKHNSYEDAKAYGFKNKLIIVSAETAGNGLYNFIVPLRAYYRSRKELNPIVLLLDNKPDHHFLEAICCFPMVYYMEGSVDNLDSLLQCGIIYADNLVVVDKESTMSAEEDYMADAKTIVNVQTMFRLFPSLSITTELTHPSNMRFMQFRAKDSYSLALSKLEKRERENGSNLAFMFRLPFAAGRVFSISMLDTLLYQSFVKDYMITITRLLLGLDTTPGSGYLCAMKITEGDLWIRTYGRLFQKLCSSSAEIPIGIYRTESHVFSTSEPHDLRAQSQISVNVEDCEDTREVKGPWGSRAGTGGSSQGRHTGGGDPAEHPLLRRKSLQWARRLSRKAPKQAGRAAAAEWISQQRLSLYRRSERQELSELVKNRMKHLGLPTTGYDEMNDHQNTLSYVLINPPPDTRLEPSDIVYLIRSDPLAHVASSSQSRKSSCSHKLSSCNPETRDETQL
In words: Inside-out patch clamp of HEK293T cells expressing R398Q KCNT1. Format: cell-based. The note with it: inside-out patches, mean ± SEM. Here is the method:
The CHO cells were cultured in Dulbecco's modified Eagle's Medium (ThermoFisher, UK) supplemented with 10% (v/v) fetal bovine serum, 50 U/ml penicillin and 0.05 mg/ml streptomycin, and incubated at 37°C in 5% CO2 atmosphere. For whole cell recording of WT/Y796H KCNT1, CHO cells were transiently co‐transfected with concatemeric WT/Y796H and EYFP, as described previously.[29] For electrophysiological experiments, cells were plated onto borosilicate glass cover slips and used 2 to 4 days later. Human embryonic kidney 293T cells (HEK293T) were cultured in the same manner, but with medium supplemented with 2 mM L‐glutamine, and 1% (v/v) nonessential amino acids. For excised inside‐out recording of homomeric WT or mutant YFP‐tagged KCNT1, HEK293T cells plated on glass cover slips were transfected using Attractene Transfection Reagent (Qiagen, Germany) according to the manufacturer's instructions and used 2 to 3 days later.
Inside‐out patch clamp recordings were made at room temperature (23°C) from transiently transfected HEK293T cells, as described previously.[11] The pipette solution contained, in mM, 140 NaCl, 4 KCl, 2 CaCl2, 2 MgCl2, and 10 HEPES adjusted to pH 7.4 with NaOH. […] KCNT1 currents were recorded using 2 voltage protocols, depending on the number of active channels in the patch before drug application. Macroscopic currents (number of active channels > 15) were recorded in response to 100 ms voltage ramps between −120 and 120 mV applied every 2 seconds from a holding potential of −78 mV. […] With a lower number of active channels in the patch (3–15), current traces were recorded in response to 15‐second voltage steps to −20, 0, and 20 mV from a holding potential of −78 mV. Currents recorded at each voltage and each drug concentration were averaged over the duration of the trace and normalized to the average amplitudes of the corresponding current traces in drug‐free solution. […] Single channel data were analyzed using Ana software developed by Dr Michael Pusch (Istituto di Biofisica, Genova, Italy; http://users.ge.ibf.cnr.it/pusch/programs-mik.htm). […]
Background: The patch-clamp technique gives a direct electrical read-out from membranes.

`O=C(OCCN1CCN(c2cccc(C(F)(F)F)c2)CC1)c1ccccc1Nc1ccnc2cc(C(F)(F)F)ccc12` [antrafenine] showed an IC50 of 0.0307 ± 0.0074 µM. `CC(C)c1c(C(=O)Nc2ccccc2)c(-c2ccccc2)c(-c2ccc(F)cc2)n1CC[C@@H](O)C[C@@H](O)CC(=O)O` [atorvastatin] displayed an IC50 of 4.5 ± 1.7 µM. For the compound `Cc1c(O)cccc1C(=O)N[C@@H](CSc1ccccc1)[C@H](O)CN1C[C@H]2CCCC[C@H]2C[C@H]1C(=O)NC(C)(C)C` [nelfinavir mesylate], half-maximal inhibition (IC50) was put at 0.0112 ± 0.0022 µM.

A word on the IC50: it is the concentration at which inhibition is half-maximal. Read a high IC50 as a need for much substance.
